The NIST ThermoML archive (doi:10.1021/je800636k)

Key:
[1] = 101 kPa, Liquid; for electrical conductivity: Qcond 2400 VWR international / cell constant, 1.05; for viscosity: Concentric cylinders viscometry; for mass density: Vibrating tube method
[2] = xn = mol fraction of the nth substance listed; conditions: 101 kPa, Liquid, x2 = 0; for electrical conductivity: Qcond 2400 VWR international / cell constant, 1.05; for viscosity: Concentric cylinders viscometry; for mass density: Vibrating tube method

CCCCn1cc[n+](C)c1C.[N-]=[N+]=[N-] [1-butyl-2,3-dimethylimidazolium azide]
[1]
Conditions	electrical conductivity [S/m]	mass density [kg/m3]	viscosity [mPa·s]
303.15 K	0.0488	–	–
308.15 K	0.0756	–	–
313.15 K	0.112	1070.46	338.19
318.15 K	0.159	–	–
323.15 K	0.219	1065.14	176.04
328.15 K	0.294	–	–
333.15 K	0.383	1059.83	101.63
338.15 K	0.49	–	–
343.15 K	0.614	1054.52	63.6
348.15 K	0.756	–	–
353.15 K	0.918	1049.21	42.44
358.15 K	1.1	–	–
363.15 K	1.3	1043.9	29.82
368.15 K	1.52	–	–
373.15 K	–	1038.59	21.87

CCCCn1cc[n+](C)c1C.F[B-](F)(F)F [1-butyl-2,3-dimethylimidazolium tetrafluoroborate]
[1]
Conditions	electrical conductivity [S/m]	mass density [kg/m3]	viscosity [mPa·s]
303.15 K	0.0758	–	–
308.15 K	0.106	–	–
313.15 K	0.145	1182.05	364.17
318.15 K	0.194	–	–
323.15 K	0.254	1175.57	204.79
328.15 K	0.327	–	–
333.15 K	0.415	1169.08	124.34
338.15 K	0.518	–	–
343.15 K	0.639	1162.6	80.35
348.15 K	0.779	–	–
353.15 K	0.939	1156.12	54.65
358.15 K	1.12	–	–
363.15 K	1.32	1149.64	38.8
368.15 K	1.55	–	–
373.15 K	–	1143.15	28.56

CCCCn1cc[n+](C)c1C.F[B-](F)(F)F [1-butyl-2,3-dimethylimidazolium tetrafluoroborate] + CCCCn1cc[n+](C)c1C.[N-]=[N+]=[N-]
[2]
Conditions	electrical conductivity [S/m]	mass density [kg/m3]	viscosity [mPa·s]
303.15 K	0.0758	–	–
308.15 K	0.106	–	–
313.15 K	0.145	1182.05	364.17
318.15 K	0.194	–	–
323.15 K	0.254	1175.57	204.79
328.15 K	0.327	–	–
333.15 K	0.415	1169.08	124.34
338.15 K	0.518	–	–
343.15 K	0.639	1162.6	80.35
348.15 K	0.779	–	–
353.15 K	0.939	1156.12	54.65
358.15 K	1.12	–	–
363.15 K	1.32	1149.64	38.8
368.15 K	1.55	–	–
373.15 K	–	1143.15	28.56
